The values that follow come from patent US20230142803A1, “NATURAL KILLER CELLS AND ILC3 CELLS AND USES THEREOF” (Celularity Inc., priority 2015, published 2023).

The test system of data set [1] is CD34+ cells. The experiment in a line: Three-stage method with SR-1 or CH223191 in Stage 1 and Stage 2 media. It counts as cell-based. The settings on record: for effects on fold expansion, cell purity (CD56+CD3−), and cytotoxicity of K562 cells: 10 μM and 1 μM, K562 at 10:1 (E:T). The method, then: CD34^+ cells are cultured in the following medium formulations for the indicated number of days, and aliquots of cells are taken for assessment of cell count, cell viability, characterization of natural killer cell differentiation and functional evaluation.
Stage 1 medium: 90% Stem Cell Growth Medium (SCGM) (CellGro®), 10% Human Serum-AB, supplemented with 4.5 U/mL low molecular weight heparin (LMWH), 25 ng/mL recombinant human thrombopoietin (TPO), 25 ng/mL recombinant human Flt3L, 27 ng/mL recombinant human stem cell factor (SCF), 25 ng/mL recombinant human IL-7, 0.05 ng/mL recombinant human IL-6 (500-fold), 0.25 ng/mL recombinant human granulocyte colony-stimulating factor (G-CSF) (50-fold), 0.01 ng/mL recombinant human granulocyte-macrophage colony-stimulating factor (GM-CSF) (500-fold), 0.10% gentamicin, and 1 to 10 μm StemRegenin-1 (SR-1).
Stage 2 medium: 90% SCGM, 10% Human Serum-AB, supplemented with 4.5 U/mL low molecular weight heparin (LMWH), 25 ng/mL recombinant human Flt3L, 27 ng/mL recombinant human SCF, 25 ng/mL recombinant human IL-7, 20 ng/mL recombinant human IL-15, 0.05 ng/mL recombinant human IL-6 (500-fold), 0.25 ng/mL recombinant human G-CSF (50-fold), 0.01 ng/mL recombinant human GM-CSF (500-fold), 0.10% gentamicin, and 1 to 10 μm SR1.
Stage 3 medium: 90% […]™, 10% Human Serum-AB, 0.025 mM 2-mercaptoethanol (55 mM), supplemented with 22 ng/mL recombinant human SCF, 1000 U/mL recombinant human IL-2, 20 ng/mL recombinant human IL-7, 20 ng/mL recombinant human IL-15, 0.05 ng/mL recombinant human IL-6 (500-fold), 0.25 ng/mL recombinant human G-CSF (50-fold), 0.01 ng/mL recombinant human GM-CSF (500-fold), and 0.10% gentamicin.
Stemregenin-1 (SR-1) was evaluated as a component of Stage 1 and Stage 2 media using the three-stage method outlined in Example 1, above, at concentrations of 1 μM, 10 μM, and 30 μM. The same concentrations of CH223191 in the three-stage method were also evaluated.

For data set [2], the system named is three-stage NK cells. The experiment in a line: Varying third medium components, flow cytometry evaluation. It counts as cell-based. The settings on record: presence of SR1 in the third medium. The text has this:
A flow cytometry panel (Table 7) was utilized for evaluation on days 0, 7, 14, 21, 28, and 35, including cell surface markers CD56, CD3, CD117, CD94, IL1R1, CD11a, CD34, and CD14/CD15 and intracellular markers RORγt, AHR, and perforin.
In general terms: In flow cytometry, cells or beads pass a laser one at a time.

In the case of `Cc1ccccc1/N=N/c1ccc(NC(=O)c2ccnn2C)c(C)c1` [CH223191, 1-methyl-N-(2-methyl-4-(2-(2-methylphenyl)diazenyl)phenyl)-1H-pyrazole-5-carboxamide], the “effects on fold expansion, cell purity (CD56+CD3−), and cytotoxicity of K562 cells” value in data set [1] is recorded as “Comparable effects”.

For `CC(C)n1cnc2c(NCCc3ccc(O)cc3)nc(-c3csc4ccccc34)nc21` [SR-1, 4-(2-(2-(benzo[b]thien-3-yl)-9-isopropyl-9H-purin-6-ylamino)ethyl)phenol], the “effects on fold expansion, cell purity (CD56+CD3−), and cytotoxicity of K562 cells” value in data set [1] is listed as “Comparable effects”. Besides, the “cytotoxicity of NK cells produced” value in data set [1] (SR-1 at 10 μM in Stage 1 and Stage 2 media vs 1 μM and 30 μM) was “higher cytotoxicity than the other two concentrations tested”. In data set [2], the “effect on NK (CD11a+) vs ILC3 (CD11a−) cell production” value is on record as “favor NK (CD11a+) cell production”.
